Experimental data from PubChem BioAssay (NCI).
Values joined by “and” are separate entries in the source; they are usually repeats but may differ in a detail not shown here. Equal entries are not always repeated.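 Assay format: 96-well plates, 48-hour exposure. GI50 is the concentration that inhibits growth by half. TGI marks complete inhibition of growth.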

Each molecule was assayed on ACHN renal (assay: inhibition of tumour cell growth, NCI panel, 48 h).
With `COC(=O)[C@@H](C)CNS(=O)(=O)N(c1cc(C(F)(F)F)cc(C(F)(F)F)c1)C1CCN(Cc2ccc(F)cc2)CC1` the GI50 was 14 µM and the TGI was 30 µM. `C=C1C(=O)O[C@@H]2/C=C(\C)CC/C=C(/COC(C)=O)C[C@@H](OC(C)=O)[C@@H]12` gave a TGI of 17 µM. In the case of `COC(=O)[C@H](C)NC(=O)NC(=O)NC(=O)CI`, the GI50 is reported as 6.76 µM and the TGI is reported as 21 µM. For `COc1cc2c(c(OC)c1OC)-c1ccc(OC)c(=O)cc1[C@@H](NC(=O)c1ccccc1)CC2`, the GI50 was 0.104 µM and the TGI was 30 µM and > 100 µM. For `CN1C/C=C\CCOc2cccc(c2)-c2ccnc(n2)Nc2cccc(c2)C1`, the GI50 was 0.0332 µM and the TGI was 1.49 µM. In the case of `Oc1ccccc1C(Sc1nc2ccccc2s1)Sc1nc2ccccc2s1`, the TGI is reported as > 100 µM. `COc1ccc(Cn2cc3c(c2-c2ccccc2)CC(C)(C)c2cnoc2-3)cc1` was tested, and the GI50 was 5.06 µM and the TGI was > 100 µM. In the case of `Oc1cccnc1CN1CCCCC1`, the TGI is reported as > 100 µM. In the case of `CN(C)C(=O)c1cc2cnc(Nc3ccc(-c4csc5c(=S)cc(N6CCOCC6)oc45)cc3)nc2n1C1CCCC1`, the GI50 is reported as 0.377 µM and the TGI is reported as > 50 µM. In the case of `COC1=CC(=O)c2nc(-c3cccc(C)n3)[nH]c2C1=O`, the GI50 is reported as 25.1 µM and the TGI is reported as 70.3 µM.

Each molecule was assayed on HS 578T breast (assay: inhibition of tumour cell growth, NCI panel, 48 h).
`COC(=O)[C@@H](C)CNS(=O)(=O)N(c1cc(C(F)(F)F)cc(C(F)(F)F)c1)C1CCN(Cc2ccc(F)cc2)CC1` showed a GI50 of 11.3 µM and a TGI of 27.1 µM. For `C=C1C(=O)O[C@@H]2/C=C(\C)CC/C=C(/COC(C)=O)C[C@@H](OC(C)=O)[C@@H]12`, the TGI was > 70.2 µM. In the case of `COC(=O)[C@H](C)NC(=O)NC(=O)NC(=O)CI`, the GI50 is reported as 21.4 µM and the TGI is reported as 54.1 µM. `COc1cc2c(c(OC)c1OC)-c1ccc(OC)c(=O)cc1[C@@H](NC(=O)c1ccccc1)CC2` was tested, and the GI50 was < 0.003 µM. `CN1C/C=C\CCOc2cccc(c2)-c2ccnc(n2)Nc2cccc(c2)C1` gave a GI50 of 0.0641 µM and a TGI of 0.82 µM. With `Oc1ccccc1C(Sc1nc2ccccc2s1)Sc1nc2ccccc2s1` the TGI was > 100 µM. Molecule `COc1ccc(Cn2cc3c(c2-c2ccccc2)CC(C)(C)c2cnoc2-3)cc1` has a GI50 of 1.45 µM and a TGI of 7.91 µM. With `Oc1cccnc1CN1CCCCC1` the TGI was > 100 µM. With `CN(C)C(=O)c1cc2cnc(Nc3ccc(-c4csc5c(=S)cc(N6CCOCC6)oc45)cc3)nc2n1C1CCCC1` the GI50 was 0.469 µM and the TGI was 3.98 µM. For `COC1=CC(=O)c2nc(-c3cccc(C)n3)[nH]c2C1=O`, the GI50 was 25.3 µM and the TGI was 76.7 µM.

These molecules were tested on MOLT-4 leukemia (assay: inhibition of tumour cell growth, NCI panel, 48 h).
Molecule `COC(=O)[C@@H](C)CNS(=O)(=O)N(c1cc(C(F)(F)F)cc(C(F)(F)F)c1)C1CCN(Cc2ccc(F)cc2)CC1` has a GI50 of 11.5 µM and a TGI of 27.4 µM. For `C=C1C(=O)O[C@@H]2/C=C(\C)CC/C=C(/COC(C)=O)C[C@@H](OC(C)=O)[C@@H]12`, the TGI was 16.9 µM. `COC(=O)[C@H](C)NC(=O)NC(=O)NC(=O)CI` showed a GI50 of 2.21 µM and a TGI of 5.17 µM. With `COc1cc2c(c(OC)c1OC)-c1ccc(OC)c(=O)cc1[C@@H](NC(=O)c1ccccc1)CC2` the GI50 was < 0.003 µM and the TGI was 30 µM and > 73.2 µM. `CN1C/C=C\CCOc2cccc(c2)-c2ccnc(n2)Nc2cccc(c2)C1` gave a GI50 of 0.0371 µM and a TGI of 0.874 µM. With `Oc1ccccc1C(Sc1nc2ccccc2s1)Sc1nc2ccccc2s1` the TGI was > 100 µM. In the case of `COc1ccc(Cn2cc3c(c2-c2ccccc2)CC(C)(C)c2cnoc2-3)cc1`, the GI50 is reported as 2.82 µM and the TGI is reported as > 100 µM. In the case of `Oc1cccnc1CN1CCCCC1`, the TGI is reported as > 100 µM. `CN(C)C(=O)c1cc2cnc(Nc3ccc(-c4csc5c(=S)cc(N6CCOCC6)oc45)cc3)nc2n1C1CCCC1` was tested, and the GI50 was 0.244 µM and the TGI was > 50 µM. `COC1=CC(=O)c2nc(-c3cccc(C)n3)[nH]c2C1=O` was tested, and the GI50 was 64.7 µM and the TGI was > 100 µM.

These molecules were tested on HCT-15 colon (assay: inhibition of tumour cell growth, NCI panel, 48 h).
`COC(=O)[C@@H](C)CNS(=O)(=O)N(c1cc(C(F)(F)F)cc(C(F)(F)F)c1)C1CCN(Cc2ccc(F)cc2)CC1` gave a GI50 of 4.42 µM and a TGI of 17.9 µM. `C=C1C(=O)O[C@@H]2/C=C(\C)CC/C=C(/COC(C)=O)C[C@@H](OC(C)=O)[C@@H]12` was tested, and the TGI was 12.4 µM. For `COC(=O)[C@H](C)NC(=O)NC(=O)NC(=O)CI`, the GI50 was 5.26 µM and the TGI was 18 µM. Molecule `COc1cc2c(c(OC)c1OC)-c1ccc(OC)c(=O)cc1[C@@H](NC(=O)c1ccccc1)CC2` has a GI50 of 0.0444 µM. Molecule `CN1C/C=C\CCOc2cccc(c2)-c2ccnc(n2)Nc2cccc(c2)C1` has a GI50 of 0.0435 µM and a TGI of 1.96 µM. For `Oc1ccccc1C(Sc1nc2ccccc2s1)Sc1nc2ccccc2s1`, the TGI was > 100 µM. `COc1ccc(Cn2cc3c(c2-c2ccccc2)CC(C)(C)c2cnoc2-3)cc1` was tested, and the GI50 was 1.02 µM and the TGI was > 100 µM. `Oc1cccnc1CN1CCCCC1` was tested, and the TGI was > 100 µM. `CN(C)C(=O)c1cc2cnc(Nc3ccc(-c4csc5c(=S)cc(N6CCOCC6)oc45)cc3)nc2n1C1CCCC1` was tested, and the GI50 was 0.344 µM and the TGI was > 50 µM. `COC1=CC(=O)c2nc(-c3cccc(C)n3)[nH]c2C1=O` was tested, and the GI50 was 52.5 µM and the TGI was > 100 µM.

The molecules below were run on U251 CNS (assay: inhibition of tumour cell growth, NCI panel, 48 h).
`COC(=O)[C@@H](C)CNS(=O)(=O)N(c1cc(C(F)(F)F)cc(C(F)(F)F)c1)C1CCN(Cc2ccc(F)cc2)CC1` gave a GI50 of 10.2 µM and a TGI of 27.9 µM. `C=C1C(=O)O[C@@H]2/C=C(\C)CC/C=C(/COC(C)=O)C[C@@H](OC(C)=O)[C@@H]12` was tested, and the TGI was 36.7 µM. `COC(=O)[C@H](C)NC(=O)NC(=O)NC(=O)CI` was tested, and the GI50 was 17.3 µM and the TGI was 31.4 µM. `COc1cc2c(c(OC)c1OC)-c1ccc(OC)c(=O)cc1[C@@H](NC(=O)c1ccccc1)CC2` showed a TGI of 4.06 µM. Work on `CN1C/C=C\CCOc2cccc(c2)-c2ccnc(n2)Nc2cccc(c2)C1` yielded a GI50 of 0.0374 µM and a TGI of 0.678 µM. With `Oc1ccccc1C(Sc1nc2ccccc2s1)Sc1nc2ccccc2s1` the TGI was > 100 µM. For `COc1ccc(Cn2cc3c(c2-c2ccccc2)CC(C)(C)c2cnoc2-3)cc1`, the GI50 was 2.99 µM and the TGI was > 100 µM. `Oc1cccnc1CN1CCCCC1` was tested, and the TGI was > 100 µM. `CN(C)C(=O)c1cc2cnc(Nc3ccc(-c4csc5c(=S)cc(N6CCOCC6)oc45)cc3)nc2n1C1CCCC1` was tested, and the GI50 was 0.481 µM and the TGI was > 50 µM. `COC1=CC(=O)c2nc(-c3cccc(C)n3)[nH]c2C1=O` gave a GI50 of 20.4 µM and a TGI of 41.7 µM.
